Assay results from PubChem BioAssay AID820 (PCMD, 2007).
Inconclusive results are not listed. Activity calls are given as the source filed them. No rule for the calls is given here.

Target: Cathepsin B (Homo sapiens) (UniProt P07858)
Test: CTSB inhibitor potency, confirmatory, biochemical, dose-response (AID 820)
Details: purified cathepsin B enzyme activity, signal read-out

O=C(Oc1oc(-c2ccco2)nc1C=Nc1ccccc1)c1ccco1
IC50: 38.5 µM

O=C(OC(C(=O)NCc1cccs1)c1ccccn1)c1cccs1 (stereo unspecified)
IC50: 6.36 µM

COC(=O)c1ccccc1NC(=O)Cn1c(-c2nonc2N)nc2ccccc21
IC50: > 50 µM (inactive)

CCC(C)[C@@H](NC(=O)OC(C)(C)C)c1nnc(S(=O)(=O)Cc2cccc(C)c2)o1 (stereo partly specified)
IC50: 2.09 µM

N#Cc1c(N2CCCC2)nc(N)c2c(N)nc(N3CCCC3)cc12
IC50: 3.17 µM

CCOC(=O)c1sc(=NC(=O)c2ccc(S(=O)(=O)N3CC(C)OC(C)C3)cc2)n(C)c1C (stereo unspecified)
IC50: > 50 µM (inactive)

CCSc1ccccc1C(=O)n1nnc2ccccc21
IC50: 7.11 µM

CC(=O)NC(=O)NC1OC(=O)C(Cl)=C1Cl (stereo unspecified)
IC50: 2.12 µM

O=C1CC(c2ccco2)Cc2nc(N3CCc4ccccc4C3)ncc21 (stereo unspecified)
IC50: > 50 µM (inactive)

Nc1cc(OC(=O)c2ccco2)nn1S(=O)(=O)c1ccc(F)cc1
IC50: 1.26 µM

COc1ccc(N(CC(=O)NCC2CCCO2)S(=O)(=O)c2c(C)noc2C)cc1 (stereo unspecified)
IC50: > 50 µM (inactive)

CCn1nc(-c2ccccc2)nc2c(=O)n(C)c(=O)nc1-2
IC50: 0.071 µM

COc1ccc(S(=O)(=O)n2nc(OC(=O)c3cccs3)cc2N)cc1
IC50: 0.692 µM

N#Cc1c(N)sc(=S)c2c1CCN(Cc1ccccc1)C2
IC50: 1.64 µM

COc1ccc(S(=O)(=O)n2nc(OC(=O)c3ccco3)cc2N)cc1
IC50: 0.923 µM

COc1ccc(S(=O)(=O)n2nc(OC(=O)c3ccc(C)cc3)cc2N)cc1
IC50: 12.3 µM

Nc1nonc1-c1nc2ccccc2n1Cc1ccc(F)cc1
IC50: 33.9 µM

Nc1cc(OC(=O)c2cccs2)nn1S(=O)(=O)c1ccc(F)cc1
IC50: 0.435 µM

Cc1ccc(S(=O)(=O)n2nc(OC(=O)c3cccs3)cc2N)cc1
IC50: 1.99 µM

Nc1nonc1-c1noc(N2CCCCC2)n1
IC50: > 50 µM (inactive)

Nc1nc2n(n1)C1(CCCCC1)C1=C(CCCC1)N2
IC50: 12.9 µM

Cc1ccc(S(=O)(=O)n2nc(OC(=O)c3ccco3)cc2N)cc1
IC50: 1.75 µM

COc1ccc(C(=O)C(OC(=O)CNC(=O)c2ccco2)c2ccccc2)cc1 (stereo unspecified)
IC50: 18.3 µM

O=C(CNC(=O)c1ccco1)OCN1C(=O)c2ccccc2C1=O
IC50: 8.56 µM

CCn1nc(-c2cccs2)nc2c(=O)n(C)c(=O)nc1-2
IC50: 0.0722 µM

COc1ccc(S(=O)(=O)n2nc(OC(=O)c3ccccc3)cc2N)cc1
IC50: 9.56 µM

CCOc1ccc(CCNC(=O)Cn2c(-c3nonc3N)nc3ccccc32)cc1OCC
IC50: > 50 µM (inactive)

Nc1cc(OC(=O)c2cccs2)nn1S(=O)(=O)c1ccccc1
IC50: 0.247 µM

COc1cc2c(cc1OC)-c1c(OC)c(OC)cc3c1C(C2)N(C)CC3 (stereo unspecified)
IC50: > 50 µM (inactive)

Nc1nonc1-c1nc2ccccc2n1CC(=O)N1CCCCC1
IC50: 44.6 µM

CC1=C(C)CS(=O)N(S(=O)(=O)c2ccc(Cl)cc2)C1 (stereo unspecified)
IC50: 4.17 µM

CCN(C(=O)COc1cc(=O)n(C)c2ccccc12)c1cccc(Cl)c1
IC50: > 50 µM (inactive)

COc1ccc(C)c(Cn2c(-c3nonc3N)nc3ccccc32)c1
IC50: 37.2 µM

COc1nc(N(C#N)CC(N)=O)nc(N2CCCC2)n1
IC50: 14.2 µM

O=S(=O)(/N=S1/CC=CCN1S(=O)(=O)c1ccccc1)c1ccccc1 (stereo unspecified)
IC50: 9.39 µM

COc1ccc(C(=O)c2no[n+]([O-])c2C(=O)c2ccc(OC)cc2)cc1
IC50: 11.5 µM

CCCCc1[nH]nc2c1C1(C(=O)N(CC)c3ccccc31)C(C#N)=C(N)O2 (stereo unspecified)
IC50: > 50 µM (inactive)

Cn1c(=O)c2c(-c3ccccc3)n(-n3cnnc3)cc2n(C)c1=O
IC50: 1.19 µM

CC(=O)OC1(C(F)(F)F)Oc2ccccc2NC1=O (stereo unspecified)
IC50: 0.845 µM

COc1cccc(Cn2c(-c3nonc3N)nc3ccccc32)c1
IC50: 46 µM
